Results reported in article PMC10739865, “The Mycobacterium tuberculosis methyltransferase Rv2067c manipulates host epigenetic programming to promote its own survival” (Nature Communications, 2023).

What was measured:
[1] = molecular target: T1, Rv2067c (Mycobacterium tuberculosis, UniProt P9WLL9)
[2] = molecular target: T1, Rv2067c; remark: listed apart in the source

T1 sequence (P9WLL9 whole entry): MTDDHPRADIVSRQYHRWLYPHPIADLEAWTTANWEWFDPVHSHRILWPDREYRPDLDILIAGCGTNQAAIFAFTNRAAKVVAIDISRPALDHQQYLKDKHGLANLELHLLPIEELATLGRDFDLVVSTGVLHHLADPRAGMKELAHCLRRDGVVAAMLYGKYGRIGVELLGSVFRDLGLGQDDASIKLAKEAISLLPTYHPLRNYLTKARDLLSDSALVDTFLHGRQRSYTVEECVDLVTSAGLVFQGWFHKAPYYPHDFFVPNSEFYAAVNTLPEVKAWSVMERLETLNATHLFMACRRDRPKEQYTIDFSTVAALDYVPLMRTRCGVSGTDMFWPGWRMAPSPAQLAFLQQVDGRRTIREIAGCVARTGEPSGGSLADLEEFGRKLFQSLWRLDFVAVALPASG

| Structure (SMILES) | radiometric methyltransferase assay (scintillation counting, autoradiography) [1] | X-ray crystallography, 2.40 Å [2] |
| --- | --- | --- |
| C[S+](CC[C@H](N)C(=O)O)C[C@H]1O[C@@H](n2cnc3c(N)ncnc32)[C@H](O)[C@@H]1O (stereo partly drawn) [S-Adenosyl-L-methionine] | Rv2067c as MTase, and tritiated SAM as a methyl donor, methylation of histones was detected | – |
| Nc1ncnc2c1ncn2[C@@H]1O[C@H](CSCC[C@H](N)C(=O)O)[C@@H](O)[C@H]1O [S-adenosyl-L-homocysteine] | – | The coordinates for Rv2067c-SAH structure have been deposited in the Protein Data Bank |
